Where no end group is shown, it is not given here.
How the values were obtained:
[1] = test system: bovine nucleus pulposus (NP) cells; assay: Proteoglycan synthesis by 35SO4 incorporation, cells in alginate beads; format: cell-based; conditions: 48 h, 16-mer peptides 1 μg/mL, 8-mer peptides 0.5 μg/mL, vs medium alone
Experimental: (§1) Human and bovine IVDs were separated from the adjoining vertebral body and divided into NP and AF for bovine IVDs and NP and inner annulus fibrosus (iAF) for human IVDs. Tissue from the human outer annulus fibrosus (oAF) was not used for cell isolation in this study. Cells were enzymatically isolated from each region as previously described (63). Briefly, NP and AF tissues were dissected into approximately 2-mm thick pieces, washed twice in PBS containing 50 μg/mL gentamicin, […] and 0.25 μg/mL fungizone, then digested with 0.2% pronase for 1 h, followed by collagenase type IA at 0.01% for NP and 0.04% for AF tissue for 4 h in serum free DMEM.
(§2) To compare the metabolic response to the various Link N peptides, freshly isolated human and bovine cells from NP and AF regions were embedded in 1.2% alginate beads, as previously described (65). Cells in alginate beads were cultured at 37° C., 5% CO2 in DMEM, containing 4.5 g/L glucose and supplemented with 10% FCS, 25 mmol/L HEPES, 50 μg/mL gentamicin sulphate, 0.25 μg/mL fungizone, 50 μg/mL L-ascorbate, and 2 mmol/L GlutaMAX. The beads were stabilized for 7 days and cell viability was assessed by Live/Dead® assay prior to further treatment. 5 beads per well were then cultured in 48 well plates in the presence of equimolar concentrations of either Link N (1 μg/mL), R-Link N (1 μg/mL), S-Link N (1 μg/mL), Link N 1-8 (0.5 μg/mL) or Link N 9-16 (0.5 μg/mL) in 0.5 mL DMEM. 25 μCi/mL ^35SO4 was added to the medium to allow assessment of proteoglycan synthesis (66). In addition, beads were exposed for 48 h to IL-1β (10 ng/mL) alone, or to a combination of peptides and IL-1β (51). At the end of the culture period, medium was collected and dialyzed exhaustively against miliQ water at […] (Spectra/Por® 3), followed by cold chase with 1M MgSO4 for 2 h to remove any remaining unincorporated ^35SO4. The ^35SO4 incorporation was measured using a beta scintillation counter (Beckman Coulter LS6500, Beckman Coulter, Mississauga, Canada).

[2] = test system: bovine annulus fibrosus (AF) cells; assay: as above; format: cell-based; conditions: 48 h, 16-mer peptides 1 μg/mL, 8-mer peptides 0.5 μg/mL, vs medium alone
Experimental: as §1, §2

[3] = test system: human nucleus pulposus (NP) cells; assay: as above; format: cell-based; conditions: 48 h; for proteoglycan synthesis (35SO4 incorporation): 16-mer peptides 1 μg/mL, 8-mer peptides 0.5 μg/mL, vs medium alone
Experimental: (§3) Human thoracolumbar spines were retrieved through the Transplant Quebec organ donation program. Discs were obtained from 7 donors, 1 male and 6 female, with a mean age of 29.6 years and an age range of 16 to 47 years (Table 1). Donors having had recent chemotherapy, radiation therapies to the spine, or significant long-standing paralysis were excluded from the study. Spine retrieval was performed within 8 h of death. Discs with calcification and loss of disc height were not included in the study. All procedures were approved by the institutional review board of the Montreal General Hospital.
as §1, §2

[4] = test system: human inner annulus fibrosus (iAF) cells; assay: as above; format: cell-based; conditions: human AF (iAF) cells, 48 h; for proteoglycan synthesis (35SO4 incorporation): 16-mer peptides 1 μg/mL, 8-mer peptides 0.5 μg/mL, vs medium alone
Experimental: as §3, §1, §2

[5] = cited from earlier work
[6] = test system: human NP cells; assay: Stability of Link N in the presence of cells (monolayer, mass spectrometry); format: in vitro ADME; conditions: Link N 1 μg/mL, 37° C.
Experimental: (§4) To evaluate the stability of Link N, freshly isolated human cells from NP and AF regions were plated in 6 well culture plates at a density of 250,000 cells per well. Cells were cultured at 37° C., 5% CO2 in 3 mL DMEM, containing 4.5 g/L glucose and supplemented with 10% FCS, 25 mmol/L HEPES, 50 μg/mL gentamicin sulphate, 0.25 μg/mL fungizone, 50 μg/mL L-ascorbate, and 2 mmol/L GlutaMAX. The wells were left for 2 days before exposure to Link-N (1 μg/mL). 200 μL medium was collected at fixed time points (0 h, 6 h, 12 h, 24 h, 36 h, and 48 h). Stability of the peptide was also studied at the same time points in the absence of cells.
(§5) 25 μL medium samples, collected from the monolayer cultures described above or peptide digests were purified on C18 spin columns according to standard protocols (Harvard Apparatus, Holliston, Mass.). Eluted peptides were reconstituted in 20 μL, 2% acetonitrile and 0.2% formic acid (FA). Samples were injected and quantified using a triple quadropole mass spectrometer TSQ Vantage™ (Thermo Scientific, Waltham, Mass.) equipped with an easy nano-LC system (Thermo Scientific). The mass spectrometer was operated in SRM mode, with both Q1 and Q3 settings at unit resolution (FWHM 0.7 Da). A spray voltage of +1,700 V was used with a heated ion transfer setting of 270° C. for desolvation. Data were acquired using the Xcalibur software (version 2.1). […]

[7] = LIVE/DEAD cell viability in alginate beads; format: cell-based; conditions: bovine, bovine intervertebral disc NP and AF cells in alginate beads, 1 μg/ml, 18 days, alginate scaffolds, read-out: cellular viability
Experimental: Coccygeal IVDs from healthy 20-24 month old steers were obtained from a local abattoir at 2-3 hours after slaughter. The IVDs were separated from their adjacent vertebral bodies, and the cells were isolated from the NP and AF regions by sequential digestion with 0.2% Pronase followed by 0.125% Collagenase digestion as previously described. After isolation, the NP and AF cells were either immediately embedded in alginate beads or were plated in 6 well plates for protein extraction.
After isolation the NP and AF cells were resuspended in 1.2% alginate (dissolved in 0.15 M NaCl) at a concentration of 2 million cells per ml. Alginate was chosen to assess the effect on matrix production in the absence of extensive cell proliferation. Droplets of cell suspension were released through an 18-gauge needle into 102 mM calcium chloride solution and were let to polymerize for 10 minutes. Alginate beads were subsequently stabilized for 7 days in culture media (Dulbecco's Modified Eagle Medium high glucose supplemented with 10% fetal bovine serum and antibiotics). […]
Cell viability was assessed at day 18 on the alginate beads using a live/dead fluorescence assay (Live/Dead®, Invitrogen) and visualized by fluorescent microscopy.

[8] = test system: human AF cells; assay: Stability and processing of Link N in the presence of cells (monolayer, mass spectrometry); format: in vitro ADME; conditions: for peak area intensity of intact Link N in the presence of AF cells: human AF cells in monolayer
Experimental: as §4
as §5, with “2.1). Mobile phases used were A (0.1% FA in water) and B (100% acetonitrile in 0.1% FA). Separation was performed on 10 μm tip, 75 μm×15 cm capillary columns (PicoTip™ emitter, New Objective, Woburn, Mass.) packed with Reprosil-Pur C18-AQ resin (3 μm, Dr. Maich GmbH, Switzerland). 1 μL sample was injected and separation was performed at a flow rate of 300 nL/min using a gradient of 97% mobile phase A for 5 min, 85% A for 8 min, 65% A for 42 min, and 19% A for 45-50 min.” for “2.1).”

[9] = target: cathepsin L (Homo sapiens, UniProt P07711); assay: Proteinase treatment of Link N, peak area by mass spectrometry; format: in vitro ADME; conditions: 30 minutes, 2 and 24 hours
cathepsin L, sequence (P07711 114-333): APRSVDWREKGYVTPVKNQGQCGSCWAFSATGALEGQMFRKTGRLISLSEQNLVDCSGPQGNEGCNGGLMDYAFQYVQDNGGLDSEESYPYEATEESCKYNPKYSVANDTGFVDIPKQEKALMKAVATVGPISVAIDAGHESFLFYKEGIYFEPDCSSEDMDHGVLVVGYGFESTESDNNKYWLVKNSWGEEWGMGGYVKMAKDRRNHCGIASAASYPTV
Experimental: (§6) 300 μg Link N 1-16 was incubated for 30 minutes, 2 and 24 hours in the presence of 10 different proteinases. The buffer used for MMPs 3, 7, 12, 13, ADAMTS 4,5, HTRA1 was composed of 50 mM Tris-HCl, 200 mM NaCl, 5 mM CaCl2, 0.01% Rapigest. For cathepsins K, B, and L, the digest buffer was composed of 2.5 mM DTT, 0.15% chondroitin sulfate A, 0.1 M sodium acetate, pH 5.5.
(§7) 25 μL medium samples, collected from the monolayer cultures described above or peptide digests were purified on C18 spin columns according to standard protocols (Harvard Apparatus, Holliston, Mass.). Eluted peptides were reconstituted in 20 μL, 2% acetonitrile and 0.2% formic acid (FA). Samples were injected and quantified using a triple quadropole mass spectrometer TSQ Vantage™ (Thermo Scientific, Waltham, Mass.) equipped with an easy nano-LC system (Thermo Scientific). The mass spectrometer was operated in SRM mode, with both Q1 and Q3 settings at unit resolution (FWHM 0.7 Da). A spray voltage of +1,700 V was used with a heated ion transfer setting of 270° C. for desolvation. Data were acquired using the Xcalibur software (version 2.1). Mobile phases used were A (0.1% FA in water) and B (100% acetonitrile in 0.1% FA). Separation was performed on 10 μm tip, 75 μm×15 cm capillary columns (PicoTip™ emitter, New Objective, Woburn, Mass.) packed with Reprosil-Pur C18-AQ resin (3 μm, Dr. Maich GmbH, Switzerland). 1 μL sample was injected and separation was performed at a flow rate of 300 nL/min using a gradient of 97% mobile phase A for 5 min, 85% A for 8 min, 65% A for 42 min, and 19% A for 45-50 min.

[10] = target: T1, ADAMTS 5 (Homo sapiens, UniProt Q9UNA0); assay: as above; format: in vitro ADME; conditions: 30 minutes, 2 and 24 hours
T1 construct: purchased R&D Systems
T1 sequence (Q9UNA0 262-930): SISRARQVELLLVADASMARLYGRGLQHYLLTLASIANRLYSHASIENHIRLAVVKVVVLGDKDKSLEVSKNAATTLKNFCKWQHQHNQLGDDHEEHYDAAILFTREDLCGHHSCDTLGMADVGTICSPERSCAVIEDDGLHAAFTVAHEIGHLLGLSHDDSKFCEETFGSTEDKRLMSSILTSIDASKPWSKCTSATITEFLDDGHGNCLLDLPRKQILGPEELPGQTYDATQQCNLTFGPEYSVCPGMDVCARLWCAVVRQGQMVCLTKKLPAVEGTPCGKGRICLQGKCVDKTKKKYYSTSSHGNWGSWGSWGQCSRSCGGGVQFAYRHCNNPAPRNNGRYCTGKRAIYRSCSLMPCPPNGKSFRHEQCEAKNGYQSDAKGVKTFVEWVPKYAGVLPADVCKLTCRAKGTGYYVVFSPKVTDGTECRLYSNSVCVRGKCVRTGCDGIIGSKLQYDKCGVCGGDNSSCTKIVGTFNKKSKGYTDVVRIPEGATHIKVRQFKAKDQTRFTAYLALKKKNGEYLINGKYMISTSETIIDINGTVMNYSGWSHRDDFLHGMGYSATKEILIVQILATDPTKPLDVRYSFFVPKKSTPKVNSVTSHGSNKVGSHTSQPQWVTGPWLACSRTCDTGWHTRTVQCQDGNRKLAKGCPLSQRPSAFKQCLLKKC
Experimental: as §6, §7

[11] = target: T2, MMP 3 (Homo sapiens, UniProt P08254); assay: as above; format: in vitro ADME; conditions: 30 minutes, 2 and 24 hours
T2 construct: purchased R&D Systems
T2 sequence (P08254 100-477): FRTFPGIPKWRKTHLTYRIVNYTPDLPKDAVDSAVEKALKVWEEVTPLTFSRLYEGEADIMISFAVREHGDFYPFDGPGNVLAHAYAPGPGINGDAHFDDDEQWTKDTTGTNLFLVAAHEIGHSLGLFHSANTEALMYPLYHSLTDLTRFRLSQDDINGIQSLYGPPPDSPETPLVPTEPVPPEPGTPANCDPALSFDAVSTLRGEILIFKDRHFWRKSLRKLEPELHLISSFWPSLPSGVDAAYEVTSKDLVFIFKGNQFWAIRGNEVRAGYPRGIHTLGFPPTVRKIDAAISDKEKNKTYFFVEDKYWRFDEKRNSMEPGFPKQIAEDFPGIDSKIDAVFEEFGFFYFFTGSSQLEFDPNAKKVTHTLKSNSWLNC
Experimental: as §6, §7

[12] = target: T3, MMP 7 (Homo sapiens, UniProt P09237); assay: as above; format: in vitro ADME; conditions: 30 minutes, 2 and 24 hours
T3 construct: purchased R&D Systems
T3 sequence (P09237 95-267): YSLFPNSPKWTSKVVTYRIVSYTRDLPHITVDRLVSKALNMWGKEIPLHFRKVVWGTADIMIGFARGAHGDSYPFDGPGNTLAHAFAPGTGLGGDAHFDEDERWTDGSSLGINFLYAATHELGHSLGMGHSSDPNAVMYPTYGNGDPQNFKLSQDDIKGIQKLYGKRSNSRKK
Experimental: as §6, §7

[13] = target: T4, cathepsin K (Homo sapiens, UniProt P43235); assay: as above; format: in vitro ADME
T4 sequence (P43235 115-329): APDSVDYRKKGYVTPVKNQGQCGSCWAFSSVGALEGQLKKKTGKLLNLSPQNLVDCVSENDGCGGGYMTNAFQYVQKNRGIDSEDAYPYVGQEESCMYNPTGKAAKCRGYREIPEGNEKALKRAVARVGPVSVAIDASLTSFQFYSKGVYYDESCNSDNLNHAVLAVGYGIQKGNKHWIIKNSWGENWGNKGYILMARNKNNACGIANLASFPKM
Experimental: as §6, §7

[14] = target: T5, MMP 13 (Homo sapiens, UniProt P45452); assay: as above; format: in vitro ADME; conditions: 30 minutes, 2 and 24 hours
T5 construct: purchased R&D Systems
Experimental: as §6, §7

[15] = target: cathepsin B (Homo sapiens, UniProt P07858); assay: as above; format: in vitro ADME; conditions: 30 minutes, 2 and 24 hours
Experimental: as §6, §7

[16] = target: T6, ADAMTS 4 (Homo sapiens, UniProt O75173); assay: as above; format: in vitro ADME; conditions: 30 minutes, 2 and 24 hours
T6 construct: purchased R&D Systems
T6 sequence (O75173 213-837): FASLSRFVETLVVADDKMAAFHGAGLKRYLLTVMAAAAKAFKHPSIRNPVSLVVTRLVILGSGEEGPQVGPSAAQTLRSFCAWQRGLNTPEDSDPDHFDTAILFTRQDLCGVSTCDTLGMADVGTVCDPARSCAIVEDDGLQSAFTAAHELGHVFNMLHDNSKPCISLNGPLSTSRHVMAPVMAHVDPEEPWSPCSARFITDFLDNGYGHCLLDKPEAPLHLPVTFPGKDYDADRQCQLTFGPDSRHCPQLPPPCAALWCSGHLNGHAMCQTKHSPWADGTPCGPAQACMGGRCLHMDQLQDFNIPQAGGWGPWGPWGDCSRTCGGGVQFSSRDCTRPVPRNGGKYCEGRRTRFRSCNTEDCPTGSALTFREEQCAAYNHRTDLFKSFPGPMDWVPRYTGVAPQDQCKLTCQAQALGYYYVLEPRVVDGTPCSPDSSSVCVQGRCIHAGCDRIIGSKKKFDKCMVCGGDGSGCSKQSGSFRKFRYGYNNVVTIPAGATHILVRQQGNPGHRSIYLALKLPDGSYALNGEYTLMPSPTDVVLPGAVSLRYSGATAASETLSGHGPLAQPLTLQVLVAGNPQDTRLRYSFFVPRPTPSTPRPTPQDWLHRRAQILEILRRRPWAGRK
Experimental: as §6, §7

[17] = target: T7, HTRA1 (Homo sapiens, UniProt Q92743); assay: as above; format: in vitro ADME; conditions: 30 minutes, 2 and 24 hours
T7 construct: purchased Thermo Scientific
T7 sequence (Q92743 23-480): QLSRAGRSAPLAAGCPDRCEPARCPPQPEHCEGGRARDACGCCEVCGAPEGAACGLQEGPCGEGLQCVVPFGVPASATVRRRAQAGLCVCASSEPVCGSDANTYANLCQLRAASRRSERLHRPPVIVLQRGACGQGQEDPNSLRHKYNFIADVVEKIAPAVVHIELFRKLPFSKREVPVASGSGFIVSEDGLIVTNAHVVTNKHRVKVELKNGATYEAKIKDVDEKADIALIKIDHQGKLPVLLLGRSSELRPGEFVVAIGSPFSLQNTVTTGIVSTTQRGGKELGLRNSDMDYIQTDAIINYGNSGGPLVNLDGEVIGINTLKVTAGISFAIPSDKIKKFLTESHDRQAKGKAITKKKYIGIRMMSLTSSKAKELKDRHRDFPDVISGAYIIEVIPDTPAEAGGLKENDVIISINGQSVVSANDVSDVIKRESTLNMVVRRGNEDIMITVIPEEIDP
Experimental: as §6, §7

[18] = target: T8, MMP 12 (Homo sapiens, UniProt P39900); assay: as above; format: in vitro ADME; conditions: 30 minutes, 2 and 24 hours
T8 construct: purchased R&D Systems
T8 sequence (P39900 106-470): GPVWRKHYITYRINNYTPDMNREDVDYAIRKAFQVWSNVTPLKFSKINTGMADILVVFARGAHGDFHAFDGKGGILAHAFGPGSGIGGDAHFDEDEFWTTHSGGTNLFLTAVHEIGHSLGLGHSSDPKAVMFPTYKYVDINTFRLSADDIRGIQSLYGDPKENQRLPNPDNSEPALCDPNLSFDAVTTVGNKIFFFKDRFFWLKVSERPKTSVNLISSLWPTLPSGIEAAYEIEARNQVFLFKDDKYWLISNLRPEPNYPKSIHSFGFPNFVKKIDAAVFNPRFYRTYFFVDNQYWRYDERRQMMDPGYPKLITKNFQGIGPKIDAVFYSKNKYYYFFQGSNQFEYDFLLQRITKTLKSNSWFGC
Experimental: as §6, §7

[19] = test system: cells from degenerated disc tissue; conditions: Wang et al.; 100 ng/mL; monolayer-expanded cells in 3D culture; cited from earlier work
[20] = IL-1β 10 ng/mL, vs IL-1-containing medium

DLNRAHLHIDYHTDSD [S-Link N, scrambled Link N]
proteoglycan synthesis (35SO4 incorporation) [1]: no effect was observed | proteoglycan synthesis (35SO4 incorporation) [2]: no effect was observed | proteoglycan synthesis (35SO4 incorporation) [3]: no response | proteoglycan synthesis (35SO4 incorporation) [4]: no response

LDHDRAIH [Link N 9-16, second 8 peptide residues of Link N]
proteoglycan synthesis (35SO4 incorporation) [1]: no effect was seen | proteoglycan synthesis (35SO4 incorporation) [2]: no effect was seen | proteoglycan synthesis (35SO4 incorporation) [3]: no response | proteoglycan synthesis (35SO4 incorporation) in the presence of IL-1β [3, 20]: no response | proteoglycan synthesis (35SO4 incorporation) [4]: no response | proteoglycan synthesis (35SO4 incorporation) in the presence of IL-1β [4, 20]: no response

DHLSDNYTLDHDRAIH [Link N, DHLSDNYTLDHDRAIH]
retention of Link N in the human disc [5]: only lost slowly through the endplate and not AF | time the peptide was stable in the presence of NP cells [6]: at least 48 h | viability at 432 h, 1 µg/mL [7]: > 98% | processed product of Link N identified by tandem mass spectrometry ([8]; AF cell culture medium, 964.4 Da peptide): a peptide spanning residues 1 to 8 was generated | peak area intensity of intact Link N in the presence of AF cells ([8]; after 48 h): only trace amounts were present | peak area intensity of intact Link N in the presence of AF cells ([8]; by 6 h): decrease | peak area intensity of the 1922 Da Link 1-16 peptide [9]: un-affected | peak area intensity of the 1922 Da Link 1-16 peptide [10]: un-affected | peak area intensity of the 1922 Da Link 1-16 peptide [11]: un-affected | peak area intensity of the 1922 Da Link 1-16 peptide [12]: un-affected | peak area intensity of the 1922 Da Link 1-16 peptide ([13]; 2 and 24 hours): hardly detectable | peak area intensity of the 1922 Da Link 1-16 peptide ([13]; 30 minutes): significantly diminished | cleavage of Link N by cathepsin K (MRM of Link 1-8 and Link 9-16) ([13]; 2 hours): single cleavage between amino acids 8 and 9 | peak area intensity of the 1922 Da Link 1-16 peptide [14]: un-affected | peak area intensity of the 1922 Da Link 1-16 peptide [15]: un-affected | peak area intensity of the 1922 Da Link 1-16 peptide [16]: un-affected | peak area intensity of the 1922 Da Link 1-16 peptide [17]: un-affected | peak area intensity of the 1922 Da Link 1-16 peptide [18]: un-affected

residue 1-12 peptide: Link N-derived peptide spanning amino acid residues 1-12, tested by Wang et al. (DHLSDNYTLDHD; UniProt P10915 16-27, looked up, fragment)
stimulatory effect (cell-associated sulphated GAG) [19]: inactive

HIARDHDLTYNDSLHD [R-Link N, reverse Link N]
proteoglycan synthesis (35SO4 incorporation) [1]: no effect was observed | proteoglycan synthesis (35SO4 incorporation) [2]: no effect was observed | proteoglycan synthesis (35SO4 incorporation) [3]: no response | proteoglycan synthesis (35SO4 incorporation) [4]: no response

DHHSDNYTVDHDRVIH [BLN, DHHSDNYTVDHDRVIH]
viability at 432 h, 1 µg/mL [7]: > 98%
